Values quoted from earlier work as cited in patent US20050148556A1, “Compositions and methods for increasing HDL and HDL-2b levels” (priority 2003, published 2005).

Settings: in vivo

CN(C)C(=N)N=C(N)N [Metformin, metformin]
HDL cholesterol levels after metformin therapy: either do not change or increase slightly
